Data set [1] can be described thus: Inhibition of Hepatitis C virus NS3 protease. The arrangement: species or system Hepacivirus hominis.
The nature of data set [2]: Half life in rat liver microsomes. It is filed as ADME, Microsome.
Data set [3] is described as follows: Permeability across basolateral to apical side in human Caco2 cells. Conditions: Caco-2, read-out: permeability. The data set is classed as ADME, cell-based.
Data set [4] has as its system Hepatitis C virus. As to the kind of experiment: Antiviral activity against Hepatitis C virus. The data set is classed as functional, organism-based, Hepacivirus hominis.
Data set [5] can be described thus: Half life in monkey liver microsomes. The data set is classed as ADME, Macaca mulatta, Microsome. Particulars: rhesus monkey.
A short description of data set [6]: Half life in dog liver microsomes. The data set is classed as ADME, Canis lupus familiaris, Microsome.
Data set [7] can be described thus: Half life in human liver microsomes. The data set is classed as ADME, Microsome.
Data set [8] in a line: Permeability across apical to basolateral side in human Caco2 cells. The data set is classed as ADME, cell-based. Conditions: Caco-2, read-out: permeability.
Data set [9] in a line: Half life in rat at 2 mg/kg, iv. The data set is classed as ADME, organism-based. Set-up: dose 2 mg/kg, route intravenous. Conditions: in vivo.
Data set [10] can be described thus: Bioavailability in rat at 2 mg/kg, […]. The data set is classed as ADME, organism-based. Conditions: in vivo.
The test system of data set [11] is Rattus norvegicus. Description: AUC (0 to infinity) in rat at 5 mg/kg, po. The data set is classed as ADME, organism-based, Plasma. Set-up: time infinity, dose 5 mg/kg, route oral. Particulars: in vivo.
A short description of data set [12]: Volume of distribution at steady state in rat at 2 mg/kg, iv. The data set is classed as ADME, organism-based. Set-up: dose 2 mg/kg, route intravenous. Conditions: in vivo, read-out: Vdss.
Data set [13] can be described thus: Clearance in rat at 2 mg/kg, iv. Conditions: in vivo. The data set is classed as ADME, organism-based. The arrangement: dose 2 mg/kg, route intravenous.
The subject of data set [14] is Rattus norvegicus. Description: Cmax in rat at 5 mg/kg, po. It is filed as ADME, organism-based. Set-up: dose 5 mg/kg, route oral. Conditions: in vivo.
A short description of data set [15]: Solubility of the compound at pH 7.2. It is filed as physicochemical. Conditions: buffer.
The nature of data set [16]: Plasma concentration in rat at 5 mg/kg measured at 1 hr. The data set is classed as ADME, organism-based. The arrangement: dose 5 mg/kg.
Data set [17] relates to Hepatitis C virus. As to the kind of experiment: Antiviral activity against Hepatitis C virus genotype 1b infected in human Huh-9-13 cells by replicon assay. It is filed as functional, organism-based, Hepacivirus hominis.

The results in this text go back to ChEMBL document CHEMBL2401615, “Peptide backbone replacement of hepatitis C virus NS3 serine protease C-terminal cleavage product analogs: discovery of potent succinamide inhibitors” (Bioorg Med Chem Lett, 2013).

Structures are written as SMILES. In brackets after ≈: the same amount, converted by molar mass.

On to `C=C[C@@H]1C[C@]1(NC(=O)[C@@H]1C[C@@H](Oc2cc(-c3csc(NC(C)=O)n3)nc3cc(OC)ccc23)CN1C(=O)[C@@H](NC(=O)OC(C)(C)C)C(C)(C)C)C(=O)O`, for which, in data set [1], 13 nM corresponded to half-maximal inhibition (IC50).
In data set [1], `C=C[C@@H]1C[C@]1(NC(=O)[C@@H]1C[C@@H](Oc2cc(-c3csc(NC(C)=O)n3)nc3cc(OC)ccc23)CN1C(=O)[C@@H](OC(=O)NC(C)(C)C)C(C)(C)C)C(=O)O` had an IC50 of 140 nM.
Still for that read-out and setting: the figure for `C=C[C@@H]1C[C@]1(NC(=O)[C@@H]1C[C@@H](Oc2cc(-c3csc(NC(C)=O)n3)nc3cc(OC)ccc23)CN1C(=O)[C@@H](NC(=O)NC(C)(C)C)C(C)(C)C)C(=O)O` is 2.6 nM; for `C=C[C@@H]1C[C@]1(NC(=O)[C@@H]1C[C@@H](Oc2cc(-c3csc(NC(C)=O)n3)nc3cc(OC)ccc23)CN1C(=O)[C@@H](CC(=O)NC(C)(C)C)C(C)(C)C)C(=O)O` it is 53 nM; for `C=C[C@@H]1C[C@]1(NC(=O)[C@@H]1C[C@@H](Oc2cc(-c3csc(NC(C)=O)n3)nc3cc(OC)ccc23)CN1C(=O)[C@@H](CC(=O)NC1CCCC1)C(C)(C)C)C(=O)O` it is 23 nM.
For `C=C[C@@H]1C[C@]1(NC(=O)[C@@H]1C[C@@H](Oc2cc(-c3csc(NC(C)=O)n3)nc3cc(OC)ccc23)CN1C(=O)[C@@H](CC(=O)Nc1ccccc1)C(C)(C)C)C(=O)O`, in [1], the IC50 turned out to be 13 nM.
For the compound `C=C[C@@H]1C[C@]1(NC(=O)[C@@H]1C[C@@H](Oc2cc(-c3csc(NC(C)C)n3)nc3c(Br)c(OC)ccc23)CN1C(=O)[C@@H](NC(=O)OC1CCCC1)C(C)(C)C)C(=O)O`, the half-life in [2] is 3.5 h; in data set [5] it was 3.17 h; in data set [6] it was greater than 5 h; in data set [7] it was greater than 5 h. Further, the Papp B→A in data set [3] came out at 2 ×10⁻⁶ cm/s. The response with Hepatitis C virus [4] was half-maximal at 6.8 nM (EC50). Half-maximal inhibition in data set [1] (IC50) was put at 8.9 nM. Moreover, the Papp A→B in [8] turned out to be 17 ×10⁻⁶ cm/s.
Regarding `C=C[C@@H]1C[C@]1(NC(=O)[C@@H]1C[C@@H](Oc2cc(-c3csc(NC(C)C)n3)nc3c(Br)c(OC)ccc23)CN1C(=O)[C@@H](CC(=O)NC1CCCC1)C(C)(C)C)C(=O)O`, the half-life is 1.4 h in data set [9]; 3.13 h in [2]; 0.867 h in data set [5]; 2.55 h in data set [6]; 3.45 h in data set [7]. Also, the Papp B→A in [3] came out at 10 ×10⁻⁶ cm/s. Besides, the bioavailability in [10] worked out at 47%. Besides, the AUC in the data set with Rattus norvegicus [11] came out at 2.1 µM·h. Also, in data set [12], the Vd came to 1.3 L/kg. This compound also had an EC50 in the data set on Hepatitis C virus [4] of 3.5 nM. In data set [13], this compound came in with a clearance of 22 mL/min/kg. Besides, half-maximal inhibition in data set [1] (IC50) was put at 10 nM. For the same compound, the Papp A→B in data set [8] was found to be 8 ×10⁻⁶ cm/s. In addition, the Cmax in the data set with Rattus norvegicus [14] worked out at 850 nM.
`C=C[C@@H]1C[C@]1(NC(=O)[C@@H]1C[C@@H](Oc2nccc3cc(OC)ccc23)CN1C(=O)[C@@H](NC(=O)OC(C)(C)C)C(C)(C)C)C(=O)NS(=O)(=O)C1CC1`: in the data set with Hepatitis C virus [4], the half-maximal effective concentration (EC50) worked out at 3 nM. This compound also came in with an IC50 in data set [1] of 2 nM.
The corresponding values for `C=C[C@@H]1C[C@]1(NC(=O)[C@@H]1C[C@@H](Oc2nccc3cc(OC)ccc23)CN1C(=O)[C@@H](CC(=O)NC(C)(C)C)C(C)(C)C)C(=O)NS(=O)(=O)C1CC1` are 130 nM and 8.7 nM.
Taken in the same sequence, the figures for `C=C[C@@H]1C[C@]1(NC(=O)[C@@H]1C[C@@H](Oc2nccc3cc(OC)ccc23)CN1C(=O)[C@@H](CC(=O)Nc1ccccc1)C(C)(C)C)C(=O)NS(=O)(=O)C1CC1` were 64 nM and 1.7 nM.
As to `C=C[C@@H]1C[C@]1(NC(=O)[C@@H]1C[C@@H](Oc2cc(OCC)nc3c(Cl)cccc23)CN1C(=O)[C@@H](CC(=O)NC(C)(C)C)C(C)(C)C)C(=O)NS(=O)(=O)C1CC1`, the solubility in data set [15] was found to be 144 mg/mL (≈ 189 mM). Besides, the EC50 with Hepatitis C virus [4] was determined as 69 nM. In addition, the half-life in data set [7] came out at 1.58 h. The compound further came in with an IC50 in data set [1] of 0.9 nM. Besides, the Papp A→B in [8] was found to be 3 ×10⁻⁶ cm/s.
The corresponding values for `C=C[C@@H]1C[C@]1(NC(=O)[C@@H]1C[C@@H](Oc2cc(OCC)nc3c(Br)c(OC)ccc23)CN1C(=O)[C@@H](CC(=O)NC(C)(C)C)C(C)(C)C)C(=O)NS(=O)(=O)C1CC1` are 83 mg/mL (≈ 99.4 mM), 8.4 nM, greater than 5 h, 0.8 nM and 7.1 ×10⁻⁶ cm/s.
As for `C=C[C@@H]1C[C@]1(NC(=O)[C@@H]1C[C@@H](Oc2cc(OCC)nc3c(Cl)cccc23)CN1C(=O)[C@@H](CC(=O)Nc1ccccc1)C(C)(C)C)C(=O)NS(=O)(=O)C1CC1`, the values for the half-life in data set [2] and in data set [7] were 2.67 h and greater than 5 h, respectively. Also, in [15], the solubility came to 56 mg/mL (≈ 71.8 mM). This compound came in with an EC50 in the data set on Hepatitis C virus [4] of 6.5 nM. For the same compound, in data set [1], the IC50 came out at 0.8 nM. Also, the Papp A→B in data set [8] was found to be 3.9 ×10⁻⁶ cm/s.
Regarding `C=C[C@@H]1C[C@]1(NC(=O)[C@@H]1C[C@@H](Oc2cc(OCC)nc3c(Br)c(OC)ccc23)CN1C(=O)[C@@H](CC(=O)Nc1ccccc1)C(C)(C)C)C(=O)NS(=O)(=O)C1CC1`, the half-life in [2] was greater than 5 h; in data set [7] it was 1.52 h. In addition, in data set [16], the concentration at 1 h turned out to be 100 nM. Further, the solubility in data set [15] worked out at 45 mg/mL (≈ 52.6 mM). In the data set with Hepatitis C virus [4], this compound displayed an EC50 of 2.5 nM. Besides, the concentration for half-maximal inhibition (IC50) in [1] amounted to 0.4 nM. Moreover, the Papp A→B in [8] amounted to 2.4 ×10⁻⁶ cm/s.
In turn, `C=C[C@@H]1C[C@]1(NC(=O)[C@@H]1C[C@@H](Oc2cc(-c3ccccc3)nc3cc(OC)ccc23)CN1C(=O)[C@@H](CC(=O)N1CCCCC1)C(C)(C)C)C(=O)NS(=O)(=O)C1CC1` [SOVAPREVIR] yielded an EC50 in the data set with Hepatitis C virus [17] of 11 nM.
